Like-named read-outs stand apart in the source and are kept apart here.
Target: T1, KIAA1363 (Mus musculus, UniProt Q8BLF1)
T1 construct: ABPP analysis of KIAA1363 activity in mouse brain membrane proteome; from tissue; host or cells: mouse brain (membrane fraction)
T1 sequence (Q8BLF1 1-408): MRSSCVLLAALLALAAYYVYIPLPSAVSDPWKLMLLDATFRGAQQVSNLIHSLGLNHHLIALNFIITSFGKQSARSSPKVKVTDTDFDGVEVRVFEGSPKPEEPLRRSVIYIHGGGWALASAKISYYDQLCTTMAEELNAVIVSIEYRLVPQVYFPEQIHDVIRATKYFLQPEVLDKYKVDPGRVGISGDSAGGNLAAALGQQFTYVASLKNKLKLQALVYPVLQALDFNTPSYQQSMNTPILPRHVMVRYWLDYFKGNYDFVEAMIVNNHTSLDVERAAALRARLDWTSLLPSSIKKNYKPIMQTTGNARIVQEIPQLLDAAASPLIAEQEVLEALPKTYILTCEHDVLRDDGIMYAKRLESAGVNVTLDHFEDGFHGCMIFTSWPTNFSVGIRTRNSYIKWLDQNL
Experiment: Gel-based competitive ABPP of KIAA1363 in mouse brain membrane proteome (FP-rhodamine)
Format: biochemical
Description: In various embodiments, the invention provides a method of inhibiting a serine hydrolase, comprising contacting the hydrolase with a compound of formula (I), e.g., a compound selected from set of compounds shown in Table 1, below. […] IC50 values were derived from ABPP analysis of KIAA1363 activity in mouse brain membrane proteome and are averages of three replicates. Inhibitors were added to the proteome for 30 min before addition of FP-rhodamine (1 μM, 30 min).
Tissues were Dounce-homogenized in PBS, pH 7.4, followed by a low-speed spin (1,400 g, 5 min) to remove debris. The supernatant was then subjected to centrifugation (100,000×g, 45 min) to provide the cytosolic fraction in the supernatant and the unsoluble fraction as a pellet. The pellet was washed and resuspended in PBS buffer by sonication. Total protein concentration in each fraction was determined using a protein assay kit (Bio-Rad). Samples were stored at −80° C. until use.
For ABPP experiments, cell lysate and tissue proteomes were treated with 1 μM FP-rhodamine for 30 min at room temperature (50 μL total reaction volume) as described previously (Nomura et al., 2010). Reactions were quenched with one volume of standard 4×SDS/PAGE loading buffer (reducing), separated by SDS/PAGE (10% acrylamide), and visualized in-gel with a Hitachi FMBio IIe flatbed fluorescence scanner (MiraiBio). Inhibitors were preincubated prior (30 min or 4 h at 37° C. in vitro or in situ, respectively) to the addition of FP-rhodamine.

[1] = mouse brain membrane proteome, inhibitor 30 min before FP-rhodamine (1 μM, 30 min), averages of three replicates, read-out: IC50 (KIAA1363)
[2] = screened against KIAA1363, Table 1, read-out: IC50 values of less than 1 micromolar

SMILES	IC50 [1] [nM]	IC50 [2] [nM]	IC50 [nM]
CCOc1ccccc1OC(=O)NCCCc1ccccc1	1790	–	–
Cc1ccc2ccccc2c1OC(=O)NCc1ccc(-c2ccccc2)cc1	> 50000	–	–
CCOc1ccccc1OC(=O)NCc1ccc(-c2ccccc2)cc1	> 50000	–	–
CCOc1ccccc1OC(=O)NCCc1cccs1	> 10000	–	–
CCOc1ccccc1OC(=O)NCCc1ccc2ccccc2c1	890	< 1000	–
CC1(C)Cc2cccc(OC(=O)NCc3ccc(I)cc3)c2O1 [JW147, 2,2-dimethyl-2,3-dihydrobenzofuran-7-yl 4-iodobenzylcarbamate]	148	< 1000	–
O=C(NCCc1ccc(F)cc1)Oc1ccc(-n2cccc2)cc1 [JW382, 4-(1H-pyrrol-1-yl)phenyl 4-fluorophenethylcarbamate]	1200	–	–
O=C(NCc1ccc(C(F)(F)F)cc1)Oc1ccc(-n2cccc2)cc1 [JW383, 4-(1H-pyrrol-1-yl)phenyl 4-(trifluoromethyl)benzylcarbamate]	997	< 1000	–
COc1ccc(CNC(=O)Oc2ccc(-n3cccc3)cc2)cc1 [JW384, 4-(1H-pyrrol-1-yl)phenyl 4-methoxybenzylcarbamate]	668	< 1000	–
Cc1ccc2ccccc2c1OC(=O)NCc1ccc(C(F)(F)F)cc1 [JW385, 2-methylnaphthalen-1-yl 4-(trifluoromethyl)benzylcarbamate]	> 50000	–	–
COc1ccc(CNC(=O)Oc2c(C)ccc3ccccc23)cc1 [JW386, 2-methylnaphthalen-1-yl 4-methoxybenzylcarbamate]	> 10000	–	–
CCOc1ccccc1OC(=O)NCc1ccc(C(F)(F)F)cc1 [JW387, 2-ethoxyphenyl 4-(trifluoromethyl)benzylcarbamate]	2820	–	–
CCOc1ccccc1OC(=O)NCc1ccc(OC)cc1 [JW388, 2-ethoxyphenyl 4-methoxybenzylcarbamate]	1610	–	–
O=C(NCc1ccc(OC(F)(F)F)cc1)Oc1ccc(-n2cccc2)cc1 [JW389, 4-(1H-pyrrol-1-yl)phenyl 4-(trifluoromethoxy)benzylcarbamate]	263	< 1000	–
Cc1ccc2ccccc2c1OC(=O)NCc1ccc(OC(F)(F)F)cc1 [JW390, 2-methylnaphthalen-1-yl 4-(trifluoromethoxy)benzylcarbamate]	> 10000	–	–
CCOc1ccccc1OC(=O)NCc1ccc(OC(F)(F)F)cc1 [JW391, 2-ethoxyphenyl 4-(trifluoromethoxy)benzylcarbamate]	1050	–	–
O=C(NCc1ccc(Cl)cc1)Oc1ccc(-n2cccc2)cc1 [JW392, 4-(1H-pyrrol-1-yl)phenyl 4-chlorobenzylcarbamate]	385	< 1000	–
O=C(NCCCc1ccccc1)Oc1ccc(-n2cccc2)cc1 [JW393, 4-(1H-pyrrol-1-yl)phenyl (3-phenylpropyl)carbamate]	> 50000	–	–
Cc1ccc2ccccc2c1OC(=O)NCc1ccc(Cl)cc1 [JW395, 2-methylnaphthalen-1-yl 4-chlorobenzylcarbamate]	> 50000	–	–
Cc1ccc2ccccc2c1OC(=O)NCCCc1ccccc1 [JW396, 2-methylnaphthalen-1-yl (3-phenylpropyl)carbamate]	> 10000	–	–
CCOc1ccccc1OC(=O)NCc1ccc(Cl)cc1 [JW398, 2-ethoxyphenyl 4-chlorobenzylcarbamate]	977	< 1000	–
CCCCc1ccc(CNC(=O)Oc2c(C)ccc3ccccc23)cc1 [JW406, 2-methylnaphthalen-1-yl 4-butylbenzylcarbamate]	> 50000	–	–

SMILES	IC50 [1] [nM]	IC50 [2] [nM]	IC50 [nM]
CCCCc1ccc(CNC(=O)Oc2ccccc2OCC)cc1 [JW409, 2-ethoxyphenyl 4-butylbenzylcarbamate]	> 50000	–	–
O=C(NCCc1ccc(Br)cc1)Oc1ccc(-n2cccc2)cc1 [JW412, 4-(1H-pyrrol-1-yl)phenyl 4-bromophenethylcarbamate]	1660	–	–
O=C(NCCc1cccs1)Oc1ccc(-n2cccc2)cc1 [JW413, 4-(1H-pyrrol-1-yl)phenyl (2-(thiophen-2-yl)ethyl)carbamate]	618	< 1000	–
O=C(NCCc1ccc2c(c1)OCO2)Oc1ccc(-n2cccc2)cc1 [JW414, 4-(1H-pyrrol-1-yl)phenyl (2-(benzo[d][1,3]dioxol-5-yl)ethyl)carbamate]	> 10000	–	–
Cc1ccc2ccccc2c1OC(=O)NCCc1ccc(Br)cc1 [JW415, 2-methylnaphthalen-1-yl 4-bromophenethylcarbamate]	1080	–	–
Cc1ccc2ccccc2c1OC(=O)NCCc1cccs1 [JW416, 2-methylnaphthalen-1-yl (2-(thiophen-2-yl)ethyl)carbamate]	3310	–	–
Cc1ccc2ccccc2c1OC(=O)NCCc1ccc2c(c1)OCO2 [JW417, 2-methylnaphthalen-1-yl (2-(benzo[d][1,3]dioxol-5-yl)ethyl)carbamate]	142	< 1000	–
CCOc1ccccc1OC(=O)NCCc1ccc(Br)cc1 [JW418, 2-ethoxyphenyl 4-bromophenethylcarbamate]	329	< 1000	–
CCOc1ccccc1OC(=O)NCCc1ccc2c(c1)OCO2 [JW420, 2-ethoxyphenyl (2-(benzo[d][1,3]dioxol-5-yl)ethyl)carbamate]	1340	–	–
O=C(NCCc1ccc(Cl)c(Cl)c1)Oc1ccc(-n2cccc2)cc1 [JW421, 4-(1H-pyrrol-1-yl)phenyl 3,4-dichlorophenethylcarbamate]	> 10000	–	–
Cc1ccc2ccccc2c1OC(=O)NCCc1ccc(Cl)c(Cl)c1 [JW422, 2-methylnaphthalen-1-yl 3,4-dichlorophenethylcarbamate]	665	< 1000	–
CCOc1ccccc1OC(=O)NCCc1ccc(Cl)c(Cl)c1 [JW423, 2-ethoxyphenyl 3,4-dichlorophenethylcarbamate]	498	< 1000	–
O=C(NCCN1CCOCC1)Oc1ccc(-n2cccc2)cc1 [JW425, 4-(1H-pyrrol-1-yl)phenyl (2-morpholinoethyl)carbamate]	–	–	> 50000
O=C(NCCc1cc2ccccc2[nH]1)Oc1ccc(-n2cccc2)cc1 [JW426, 4-(1H-pyrrol-1-yl)phenyl (2-(1H-indol-2-yl)ethyl)carbamate]	> 50000	–	–
Cc1ccc2ccccc2c1OC(=O)NCCN1CCOCC1 [JW427, 2-methylnaphthalen-1-yl (2-morpholinoethyl)carbamate]	–	–	> 50000
Cc1ccc2ccccc2c1OC(=O)NCCc1cc2ccccc2[nH]1 [JW428, 2-methylnaphthalen-1-yl (2-(1H-indol-2-yl)ethyl)carbamate]	3940	–	–
CCOc1ccccc1OC(=O)NCCN1CCOCC1 [JW429, 2-ethoxyphenyl (2-morpholinoethyl)carbamate]	–	–	> 50000
CCOc1ccccc1OC(=O)NCCc1cc2ccccc2[nH]1 [JW430, 2-ethoxyphenyl (2-(1H-indol-2-yl)ethyl)carbamate]	> 50000	–	–
COc1ccc(CCNC(=O)Oc2ccc(-n3cccc3)cc2)cc1 [JW431, 4-(1H-pyrrol-1-yl)phenyl 4-methoxyphenethylcarbamate]	1290	–	–
COc1cccc(CCNC(=O)Oc2ccc(-n3cccc3)cc2)c1 [JW432, 4-(1H-pyrrol-1-yl)phenyl 3-methoxyphenethylcarbamate]	> 10000	–	–
O=C(NCCC(c1ccccc1)c1ccccc1)Oc1ccc(-n2cccc2)cc1 [JW433, 4-(1H-pyrrol-1-yl)phenyl (3,3-diphenylpropyl)carbamate]	> 50000	–	–

Reference: US9249128B2 (priority 2010, dated 2016)
